In patent US6166062A, “Pharmaceutical compositions containing phospholipase inhibitor” (Shionogi & Co., Ltd., priority 1999, dated 2000):

Columns and labels:
[1] = collapse temperature of frozen solutions (freeze dry microscopy); format: physicochemical
Text: The term, "collapse temperature," describes the glass transition temperature for amorphous solids or eutectic temperature for crystalline solids. Collapse temperature is that temperature above which the product is not completely frozen. Freeze dry microscoscropy enables measurement of the temperature at which frozen solutions begin to lose their rigid structure during a sublimation process.

[2] = solubility of Compound (I) (statement); format: physicochemical
Text: Storage of a pharmaceutical composition of Compound (I) prepared by known methods may lead to degradation of its content and a coloring and a worsening of its reconstitution properties, especially in the case of injections to be dissolved before use. It is difficult to provide a pharmaceutical composition of Compound (I) which has good stability and a good reconstitution property, especially for injections of Compound (I) to be dissolved before use, after long storage at room temperature.

[3] = system: human non-pancreatic secretory phospholipase A2 (sPLA2); conditions: as disclosed in JP-A 7-285933, EP 0 675 110 A1, U.S. Pat. No. 5,654,326; cited from earlier work

SMILES: CCc1c(C(=O)C(N)=O)c2c(OCC(=O)[O-])cccc2n1Cc1ccccc1.[Na+] [Compound (I), sodium [[3-(2-amino-1,2-dioxoethyl)-2-ethyl-1-(phenylmethyl)-1H-indol-4-yl]oxy]acetate]
- collapse temperature ([1]; after annealing): about -13 °C
- collapse temperature ([1]; before annealing): about -33 °C
- solubility [2]: sparingly soluble
- inhibitor against human non-pancreatic secretory phospholipase A2 [3]: inhibitor
